For one assay, the target named is T1, IRAK4 (Homo sapiens, UniProt Q9NWZ3).
T1 construct: endogenous in cells; host or cells: OCI-LY10
T1 sequence (Q9NWZ3 1-460): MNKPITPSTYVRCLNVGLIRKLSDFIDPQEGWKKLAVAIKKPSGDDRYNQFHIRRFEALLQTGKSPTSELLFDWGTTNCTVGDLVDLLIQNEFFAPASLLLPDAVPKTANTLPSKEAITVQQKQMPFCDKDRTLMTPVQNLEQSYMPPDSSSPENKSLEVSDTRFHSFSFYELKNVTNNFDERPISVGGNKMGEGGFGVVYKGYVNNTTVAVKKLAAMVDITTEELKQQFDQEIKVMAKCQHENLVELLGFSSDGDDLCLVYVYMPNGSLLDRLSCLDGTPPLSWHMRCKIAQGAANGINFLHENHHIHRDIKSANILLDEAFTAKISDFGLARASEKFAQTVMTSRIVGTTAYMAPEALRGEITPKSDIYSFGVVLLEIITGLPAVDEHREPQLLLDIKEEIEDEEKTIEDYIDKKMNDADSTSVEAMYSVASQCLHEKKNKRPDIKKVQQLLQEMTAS
Put plainly: IRAK4 MSD Degradation in OCI-LY10. It is filed as cell-based. To be noted: OCI-LY10 cells, 4 hrs incubation, read-out: IRAK4 degradation in OCI-LY10 at 4 hrs: DC50. As for the experimental part: Degradation of IRAK4 in OCI-LY10 was quantitatively measured using Meso Scale Discovery technology. […] Compounds were then added to the assay plates with a final top concentration of 1 to 10 μM in a 1:3 dilution series with total of 8 doses. The assay plates were then incubated for 4 to 24 hours at 37° C. under 5% C02. […] To prepare MSD assay plates (Meso Scale Discovery Catalog number L15XA-3), the plates were coated with […] capture antibody (mouse Anti-IRAK4 antibody [2H9], ab119942) in PBS, at 40 μL/well. […] Cell lysates were then added to MSD assay plates and the plates were incubated at room temperature for 1 hour. The plates were then washed 3 times with 150 μL/well TBST buffer and 25 μL/well primary detection antibody (rabbit Anti-IRAK4 antibody [Y279], from Abcam. Catalog number ab32511, 1 μg/mL). The assay plates were then incubated at room temperature for 1 hour, washed 3 times with 150 μL/well TBST buffer and 25 μL/well secondary detection antibody, SULFO-TAG anti-rabbit antibody were added (anti rabbit antibody from Meso Scale Discovery, Catalog number R32AB-1, 1 μg/mL). The assay plates were then incubated at room temperature for 1 hour, washed 3 times with 150 μL/well TBST buffer, and 150 μL/well MSD reading buffer (Meso Scale Discovery catalog number R92TC-2) was added. The plates were then analyzed by a MSD reader (Meso Scale Discovery, Model Quick Plex SQ 120). The data was then analyzed by software Prism 7.0 from GraphPad and the dose-depended IRAK4 degradation were fit using a three-parameter logistic equation to calculate DC50.
The letter codes for IRAK4 […] include: A (<0.05 μM); B (0.05-0.1 μM); C (0.1-0.5 μM); D (0.5-1.0 μM); and E (>1.0 μM).
For `Cn1c(=O)n(C2CCC(=O)NC2=O)c2cccc([C@H]3CC[C@H](N(C)C[C@H]4CC[C@H](n5cc6cc(NC(=O)c7cccc(C(F)(F)F)n7)c(C(F)F)cc6n5)CC4)CC3)c21` (single isomer, unassigned) [I-164, N-[6-(difluoromethyl)-2-[4-[[[4-[1-(2,6-dioxo-3-piperidyl)-3-methyl-2-oxo-benzimidazol-4-yl]cyclohexyl]-methyl-amino]methyl]cyclohexyl]indazol-5-yl]-6-(trifluoromethyl)pyridine-2-carboxamide], the 50% degradation concentration (DC50) was less than 50 nM. Take `Cn1c(=O)n(C2CCC(=O)NC2=O)c2cccc([C@H]3CC[C@@H](N(C)C[C@H]4CC[C@H](n5cc6cc(NC(=O)c7cccc(C(F)(F)F)n7)c(C(F)F)cc6n5)CC4)CC3)c21` (single isomer, unassigned) [I-165, N-[6-(difluoromethyl)-2-[4-[[[4-[1-(2,6-dioxo-3-piperidyl)-3-methyl-2-oxo-benzimidazol-4-yl]cyclohexyl]-methyl-amino]methyl]cyclohexyl]indazol-5-yl]-6-(trifluoromethyl)pyridine-2-carboxamide]: the DC50 is less than 50 nM. The same measure, in the same setting: for `Cn1c(=O)n(C2CCC(=O)NC2=O)c2cccc([C@H]3CC[C@@H](N(C)C[C@H]4CC[C@H](n5cc6cc(NC(=O)c7cccc(C(F)(F)F)n7)c(C(C)(C)O)cc6n5)CC4)CC3)c21` (single isomer, unassigned) [I-174, N-[2-[4-[[[4-[1-(2,6-dioxo-3-piperidyl)-3-methyl-2-oxo-benzimidazol-4-yl]cyclohexyl]-methyl-amino]methyl]cyclohexyl]-6-(1-hydroxy-1-methyl-ethyl)indazol-5-yl]-6-(trifluoromethyl)pyridine-2-carboxamide] the value was less than 50 nM; for `Cn1c(=O)n(C2CCC(=O)NC2=O)c2cccc([C@H]3CC[C@H](N(C)C[C@H]4CC[C@H](n5cc6cc(NC(=O)c7cccc(C(F)(F)F)n7)c(C(C)(C)O)cc6n5)CC4)CC3)c21` (single isomer, unassigned) [I-175, N-[2-[4-[[[4-[1-(2,6-dioxo-3-piperidyl)-3-methyl-2-oxo-benzimidazol-4-yl]cyclohexyl]-methyl-amino]methyl]cyclohexyl]-6-(1-hydroxy-1-methyl-ethyl)indazol-5-yl]-6-(trifluoromethyl)pyridine-2-carboxamide], less than 50 nM; for `CN(C[C@H]1CC[C@H](n2ncc3cc(NC(=O)c4cccc(C(F)(F)F)n4)c(C(C)(C)O)cc32)CC1)C1CCN(Cc2cccc3c2n(C)c(=O)n3C2CCC(=O)NC2=O)CC1` (some centres unmarked) [I-34], 500 to 1000 nM. Turning to `CN(CC1CCN(c2cccc3c2C(=O)N(C2CCC(=O)NC2=O)C3=O)CC1)C[C@H]1CC[C@H](n2cc3cc(NC(=O)c4cccc(C(F)(F)F)n4)c(C(C)(C)O)cc3n2)CC1` (some centres unmarked) [I-40], the DC50 lay within 50 to 100 nM.

Regarding `CN(C(=O)[C@H]1CC[C@H](n2cc3cc(NC(=O)c4cccc(C(F)(F)F)n4)c(C(C)(C)O)cc3n2)CC1)C1CCN(Cc2cccc3c2n(C)c(=O)n3C2CCC(=O)NC2=O)CC1` (some centres unmarked) [I-43], the DC50 is less than 50 nM.

For `Cn1c(=O)n(C2CCC(=O)NC2=O)c2cccc(CN3CC4(CCN(C(=O)[C@H]5CC[C@H](n6cc7cc(NC(=O)c8cccc(C(F)(F)F)n8)c(C(C)(C)O)cc7n6)CC5)CC4)C3)c21` (some centres unmarked) [I-44], the DC50 was less than 50 nM. On the same count and under the same terms, for `Cn1c(=O)n(C2CCC(=O)NC2=O)c2cccc(CN3CC4(C3)CN(C(=O)[C@H]3CC[C@H](n5cc6cc(NC(=O)c7cccc(C(F)(F)F)n7)c(C(C)(C)O)cc6n5)CC3)C4)c21` (some centres unmarked) [I-45, N-[2-[4-[6-[[1-(2,6-dioxo-3-piperidyl)-3-methyl-2-oxo-benzimidazol-4-yl]methyl]-2,6-diazaspiro[3.3]heptane-2-carbonyl]cyclohexyl]-6-(1-hydroxy-1-methyl-ethyl)indazol-5-yl]-6-(trifluoromethyl)pyridine-2-carboxamide] the value was 50 to 100 nM; for `Cc1cccc(C(=O)Nc2cc3cn([C@H]4CC[C@H](CN(C)C5CCN(Cc6cccc7c6n(C)c(=O)n7C6CCC(=O)NC6=O)CC5)CC4)nc3cc2C(C)(C)O)n1` (some centres unmarked) [I-48], less than 50 nM; for `Cn1c(=O)n(C2CCC(=O)NC2=O)c2cccc(CN3CC4(CN(Cc5ccc(-n6cc7cc(NC(=O)c8cccc(C(F)(F)F)n8)c(C(C)(C)O)cc7n6)cc5)C4)C3)c21` (centres unmarked) [I-49], 50 to 100 nM. On the same count and under the same terms, for `CN(C[C@H]1CC[C@H](n2cc3cc(NC(=O)c4cnn5cccnc45)c(C(C)(C)O)cc3n2)CC1)C1CCN(Cc2cccc3c2n(C)c(=O)n3C2CCC(=O)NC2=O)CC1` (some centres unmarked) [I-50] the value was less than 50 nM.

Consider `Cn1c(=O)n(C2CCC(=O)NC2=O)c2cccc(CN3CCOC4(CCN(Cc5ccc(-n6cc7cc(NC(=O)c8cccc(C(F)(F)F)n8)c(C(C)(C)O)cc7n6)cc5)CC4)C3)c21` (centres unmarked) [I-52], for which the DC50 lay within 50 to 100 nM.

Turning to `Cn1c(=O)n(C2CCC(=O)NC2=O)c2cccc(CCC3CC4(CCN(C[C@H]5CC[C@H](n6cc7cc(NC(=O)c8cccc(C(F)(F)F)n8)c(C(C)(C)O)cc7n6)CC5)CC4)C3)c21` (some centres unmarked) [I-53], the half-maximal degradation concentration (DC50) was less than 50 nM. On the same count and under the same terms, next, `CN(C[C@H]1CC[C@H](n2cc3cc(NC(=O)c4ccccn4)c(C(C)(C)O)cc3n2)CC1)C1CCN(Cc2cccc3c2n(C)c(=O)n3C2CCC(=O)NC2=O)CC1` (some centres unmarked) [I-54]: 50 to 100 nM. Take `Cn1c(=O)n(C2CCC(=O)NC2=O)c2cccc(CCN3CC4(CCN(C[C@H]5CC[C@H](n6cc7cc(NC(=O)c8cccc(C(F)(F)F)n8)c(C(C)(C)O)cc7n6)CC5)CC4)C3)c21` (some centres unmarked) [I-55]: the 50% degradation concentration (DC50) is less than 50 nM.

Still in this assay, the particulars now being: OCI-LY10 cells, 24 hrs incubation, read-out: IRAK4 degradation in OCI-LY10 at 24 hrs: DC50.
Turning to `COc1cc2nn([C@H]3CC[C@H](CN4CCC5(CC4)CC(CCNc4cccc6c4C(=O)N(C4CCC(=O)NC4=O)C6=O)C5)CC3)cc2cc1NC(=O)c1cccc(C(C)(F)F)n1` (single isomer, unassigned) [I-128], the DC50 lay within 50 to 100 nM. Take `COc1cc2nn([C@H]3CC[C@H](CN4CCC5(CC4)CC(CCNc4cccc6c4C(=O)N(C4CCC(=O)NC4=O)C6=O)C5)CC3)cc2cc1NC(=O)c1cccc(C(C)(F)F)n1` (single isomer, unassigned) [I-129]: the 50% degradation concentration (DC50) was 50 to 100 nM. Consider `CN(CCCOCCCNc1cccc2c1C(=O)N(C1CCC(=O)NC1=O)C2=O)C[C@H]1CC[C@H](n2cc3cc(NC(=O)c4cccc(C(F)(F)F)n4)c(C(C)(C)O)cc3n2)CC1` (some centres unmarked) [I-31], for which the half-maximal degradation concentration (DC50) fell in the range of 50 to 100 nM.

Regarding `CN(C[C@H]1CC[C@H](n2cc3cc(NC(=O)c4cccc(C(F)(F)F)n4)c(C(C)(C)O)cc3n2)CC1)C1CCC2(CC1)CC(CNc1cccc3c1C(=O)N(C1CCC(=O)NC1=O)C3=O)C2` (some centres unmarked) [I-32], the 50% degradation concentration (DC50) is less than 50 nM. Still for that read-out and setting: next, `O=C1CCC(N2C(=O)c3cccc(NCCCOCC4CCN(C[C@H]5CC[C@H](n6cc7cc(NC(=O)c8cccc(C(F)(F)F)n8)c(C(F)F)cc7n6)CC5)CC4)c3C2=O)C(=O)N1` (some centres unmarked) [I-33]: 50 to 100 nM; `CC(C)(O)c1cc2nn([C@H]3CC[C@H](CN4CCC5(CC4)CC(Nc4cccc6c4C(=O)N(C4CCC(=O)NC4=O)C6=O)C5)CC3)cc2cc1NC(=O)c1cccc(C(F)(F)F)n1` (some centres unmarked) [I-35, N-[2-[4-[[2-[[2-(2,6-dioxo-3-piperidyl)-1,3-dioxo-isoindolin-4-yl]amino]-7-azaspiro [3.5]nonan-7-yl]methyl]cyclohexyl]-6-(1-hydroxy-1-methyl-ethyl)indazol-5-yl]-6-(trifluoromethyl)pyridine-2-carboxamide]: less than 50 nM; `CN(CCCO[C@H]1C[C@H](Nc2cccc3c2C(=O)N(C2CCC(=O)NC2=O)C3=O)C1)C[C@H]1CC[C@H](n2cc3cc(NC(=O)c4cccc(C(F)(F)F)n4)c(C(C)(C)O)cc3n2)CC1` (some centres unmarked) [I-41]: less than 50 nM. The same measure, in the same setting: next, `CC(C)(O)c1cc2nn([C@H]3CC[C@H](CN4CCC5(CC4)CC(CNc4cccc6c4C(=O)N(C4CCC(=O)NC4=O)C6=O)C5)CC3)cc2cc1NC(=O)c1cccc(C(F)(F)F)n1` (some centres unmarked) [I-42]: less than 50 nM; `O=C1CCC(N2C(=O)c3cccc(NCC4CC5(CCN(C[C@H]6CC[C@H](n7cc8cc(NC(=O)c9cccc(C(F)(F)F)n9)c(C(F)F)cc8n7)CC6)CC5)C4)c3C2=O)C(=O)N1` (some centres unmarked) [I-46]: 50 to 100 nM; `Cc1cccc(C(=O)Nc2cc3cn([C@H]4CC[C@H](CN(C)[C@H]5CC[C@H](Nc6cccc7c6C(=O)N(C6CCC(=O)NC6=O)C7=O)CC5)CC4)nc3cc2C(C)(C)O)n1` (some centres unmarked) [I-47]: less than 50 nM.

Broadly, the DC50 is the midpoint of the concentration-degradation curve.

The values are drawn from patent US12545659B2, “IRAK degraders and uses thereof” (Kymera Therapeutics, Inc., priority 2019, dated 2026).
